The values below come from publication PMC10783051 (Microbiology Spectrum, 2023).

The series concerns S. venezuelae supernatant (secreted enzymes). As to the kind of experiment: In vitro degradation of CLPs by S. venezuelae cell-free supernatant. Format: in vitro ADME, Streptomyces venezuelae ATCC 10712. The conditions noted are these: pure CLPs (100 µM) incubated 24 h at 30°C with 4% (vol/vol) Sv CFS (grown on ISP2, 0.22-µm filtered), shaking 180 rpm; UPLC-MS/MS with feature-based molecular networking. As for the experimental part: S. venezuelae cultures were performed on ISP2 medium at 28°C (yeast extract 4 g/L, malt extract 10 g/L, glucose 4 g/L, agar 20 g/L; pH 7.3). On 12 × 12 cm Petri square plates, three stripes (1 × 12 cm) of spores were inoculated with a cotton swab [40 µL of spores suspension (10^7 spores/mL) each], spaced by 3 cm each. The plates were left for 7 days of incubation. Next, the agar media was recovered and placed in Falcon tubes at −20°C for 24 h. Then, the agar media were defrosted at room temperature and centrifuged (8,000 rpm for 20 min). Finally, the supernatant leaked from the agar was collected, filtered sterilized (0.22-µm pore size filters) and stored at −20°C until further use. The heat-treated Sv supernatant was generated by incubating an aliquot of the cell-free supernatant of Sv for 10 min at 98°C. The supernatant was then filtered (0.22-µm pore size filters) and stored at −20°C until further use.
[…] Then the solutions were incubated for 24 h at 30°C with continuous shaking (180 rpm). Next, the solution were centrifuged (1 min at 10,000 rpm), filtered (0.22-µm pore size filters), and analyzed by UPLC-MS.
The degradation assays of Pseudomonas CLPs were performed using CFS generated as described above. They were supplemented by 4% (vol/vol) of S. venezuelae CFS prepared as described previously. Next, the solutions were incubated for 24 h at 30°C with continuous shaking (180 rpm). Then, the solution were centrifuged (1 min at 10,000 rpm), filtered (0.22-µm pore size filters), and analyzed by UPLC-MS.
For the CLP degradation kinetic experiments, surfactin, iturin, and fengycin solutions supplemented with S. venezuelae supernatant were prepared following the same protocol. Twenty microliters of solution was sampled at each time point and directly mixed with 80 µL of acetonitrile to stop enzymatic degradation. Finally, they were stored at −20°C until analysis by UPLC-MS.
All UPLC-MS analyses were performed using an Agilent 1290 Infinity II coupled with a diode array detector and a mass detector (Jet Stream ESI-Q-TOF 6530) in positive mode with the parameters set up as follows: capillary voltage of 3.5 kV, nebulizer pressure of 35 lb/in^2, drying gas of 8 L/min, drying gas temperature of 300°C, flow rate of sheath gas of 11 L/min, sheath gas temperature of 350°C, fragmentor voltage of 175 V, skimmer voltage of 65 V, and octopole radiofrequency of 750 V. Accurate mass spectra were recorded in the m/z range of 300–1,700. For untargeted MS/MS, we used the same MS1 parameters as described. We added MS2 untargeted acquisition mode with the parameters as follows: MS/MS range 50–1,700 m/z; MS/MS scan rate 3 spectra/s; isolation width MS/MS medium (approx. 4 AMU), Decision Engine Native; fixed collision energies of 25 and 40 V for surfactin, 50 V for iturin, and 60 V for fengycin experiments; precursor selection: three for the surfactin experiment, four for the iturin and fengycin experiments, threshold 1,500 (Abs), isotope model common, active exclusion after two spectra and release after 0.5 min, sorting the precursors by charge state then abundance (charge state preference 1). For targeted MS/MS, we used the same MS1 parameters MS/MS range of 50–1,700 m/z or 50–3,200 (when required for Pseudomonas CLPs with mass >1,700 Da), MS/MS scan rate 3 spectra/s, isolation width MS/MS narrow (approx. 1.3 amu), and fixed collision energies 20, 40, and 60V. In all experiments, a C18 Acquity UPLC ethylene bridged hybrid column (2.1 mm × 50 mm × 1.7 µm; Waters Corporation, Milford, MA, USA) was used at a flow rate of 0.6 mL/min and a temperature of 40°C. The injection volume was 20 µL, and the diode array detector scanned a wavelength spectrum between 190 and 600 nm. Unless otherwise mentioned, a gradient of acidified water (0.1% formic acid) (solvent A) and of acidified acetonitrile (0.1% formic acid) (solvent B) was used as mobile phase with a constant flow rate of 0.6 mL/min, starting at 10% B and rising to 100% B in 20 min. […]

For iturin, the “degradation of pure Bacillus CLPs by Sv CFS” value was “degrades”.
